Source: ChEMBL document CHEMBL1201862, “PubChem BioAssay data set” (2004)
Activity calls are given as the source filed them.

Legend:
[1] = biological target: Neuropeptide Y receptor type 2 (Homo sapiens, UniProt P49146); assay: NPY-Y2 antagonist potency, selectivity check, dose response, counter-screen for NPY-Y1 antagonist project, cell-based (AID 1278); type: functional
[2] = biological target: Neuropeptide Y receptor type 1 (Homo sapiens, UniProt P25929); assay: NPY-Y1 receptor antagonist potency, dose response, cell-based (AID 1277); type: functional
Sequence of Neuropeptide Y receptor type 1 (P25929 whole entry): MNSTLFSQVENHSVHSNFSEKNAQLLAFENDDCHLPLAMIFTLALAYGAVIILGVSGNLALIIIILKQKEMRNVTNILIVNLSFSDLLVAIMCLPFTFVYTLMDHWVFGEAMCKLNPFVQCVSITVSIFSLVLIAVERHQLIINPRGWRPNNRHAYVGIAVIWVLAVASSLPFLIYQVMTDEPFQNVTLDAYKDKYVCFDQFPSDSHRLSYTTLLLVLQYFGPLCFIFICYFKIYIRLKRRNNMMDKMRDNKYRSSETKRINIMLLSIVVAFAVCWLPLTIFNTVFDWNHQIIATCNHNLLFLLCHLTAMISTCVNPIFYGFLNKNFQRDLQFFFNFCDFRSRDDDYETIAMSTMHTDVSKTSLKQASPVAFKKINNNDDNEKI

Streptococcus = assay: Group A Streptococcus viability loss, dose response, counter-screen for streptokinase expression inhibitor project, luminescence, BacTiterGlo (AID 1915); type: functional, organism-based;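 note: potency for reduction of bacterial viability or growth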
[3] = biological target: Photoreceptor-specific nuclear receptor (Homo sapiens, UniProt Q9Y5X4); type: functional, cell-based;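 note: CHO-S cells with Gal4-NCOR and VP16-NR2E3 two-hybrid luciferase reporter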
Sequence of Photoreceptor-specific nuclear receptor (Q9Y5X4 whole entry, the tested form may be a part): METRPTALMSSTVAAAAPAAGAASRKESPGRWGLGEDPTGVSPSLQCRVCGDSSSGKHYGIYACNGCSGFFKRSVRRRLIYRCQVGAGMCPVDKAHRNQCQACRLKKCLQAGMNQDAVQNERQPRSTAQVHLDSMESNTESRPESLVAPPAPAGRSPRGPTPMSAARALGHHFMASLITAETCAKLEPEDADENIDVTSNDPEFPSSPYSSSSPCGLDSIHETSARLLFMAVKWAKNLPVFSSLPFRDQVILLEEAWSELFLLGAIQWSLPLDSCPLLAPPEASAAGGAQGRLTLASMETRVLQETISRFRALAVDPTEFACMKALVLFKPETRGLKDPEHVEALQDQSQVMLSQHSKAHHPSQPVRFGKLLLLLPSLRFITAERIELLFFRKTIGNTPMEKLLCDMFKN

Mucolipin-3 = Mucolipin-3 (Homo sapiens, UniProt Q8TDD5); assay: Dose response cell-based high-throughput screening assay for agonists of the transient receptor potential channel ML3 (TRPML3). [Related pubchem assays: 1526, 1424, 1448 ]; type: functional
Sequence of Mucolipin-3 (Q8TDD5 whole entry): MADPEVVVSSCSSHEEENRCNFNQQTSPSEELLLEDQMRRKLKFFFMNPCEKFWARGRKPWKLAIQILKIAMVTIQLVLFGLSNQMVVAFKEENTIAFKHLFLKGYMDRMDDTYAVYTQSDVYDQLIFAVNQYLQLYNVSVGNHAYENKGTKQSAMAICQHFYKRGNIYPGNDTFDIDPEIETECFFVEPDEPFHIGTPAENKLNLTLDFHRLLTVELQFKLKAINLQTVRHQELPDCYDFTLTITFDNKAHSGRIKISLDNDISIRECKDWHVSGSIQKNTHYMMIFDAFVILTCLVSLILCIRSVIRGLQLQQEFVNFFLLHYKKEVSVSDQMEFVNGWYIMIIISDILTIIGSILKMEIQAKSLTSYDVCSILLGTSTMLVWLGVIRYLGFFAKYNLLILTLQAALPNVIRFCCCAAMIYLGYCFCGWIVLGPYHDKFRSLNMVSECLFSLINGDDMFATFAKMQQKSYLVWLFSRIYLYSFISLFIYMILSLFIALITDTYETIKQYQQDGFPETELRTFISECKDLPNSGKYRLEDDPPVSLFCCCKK

[4] = system: Streptococcus sp. 'group A'; assay: growth inhibition of control SK(-) GAS strain, dose response, counter-screen for streptokinase expression inhibitor project, luminescence, kanamycin, BacTiterGlo, confirmation (AID 1900); type: functional, organism-based
Ion channel NompC = Ion channel NompC (Danio rerio, UniProt Q7T1G6); assay: Fluorescence counterscreen assay for TRPML3 agonists: dose response cell-based high-throughput screening assay to identify agonists of the transient receptor potential channel N1 (TRPN1). [Related pubchem assays: 1526, 1424, 1448 ]; type: functional
Sequence of Ion channel NompC (Q7T1G6 whole entry): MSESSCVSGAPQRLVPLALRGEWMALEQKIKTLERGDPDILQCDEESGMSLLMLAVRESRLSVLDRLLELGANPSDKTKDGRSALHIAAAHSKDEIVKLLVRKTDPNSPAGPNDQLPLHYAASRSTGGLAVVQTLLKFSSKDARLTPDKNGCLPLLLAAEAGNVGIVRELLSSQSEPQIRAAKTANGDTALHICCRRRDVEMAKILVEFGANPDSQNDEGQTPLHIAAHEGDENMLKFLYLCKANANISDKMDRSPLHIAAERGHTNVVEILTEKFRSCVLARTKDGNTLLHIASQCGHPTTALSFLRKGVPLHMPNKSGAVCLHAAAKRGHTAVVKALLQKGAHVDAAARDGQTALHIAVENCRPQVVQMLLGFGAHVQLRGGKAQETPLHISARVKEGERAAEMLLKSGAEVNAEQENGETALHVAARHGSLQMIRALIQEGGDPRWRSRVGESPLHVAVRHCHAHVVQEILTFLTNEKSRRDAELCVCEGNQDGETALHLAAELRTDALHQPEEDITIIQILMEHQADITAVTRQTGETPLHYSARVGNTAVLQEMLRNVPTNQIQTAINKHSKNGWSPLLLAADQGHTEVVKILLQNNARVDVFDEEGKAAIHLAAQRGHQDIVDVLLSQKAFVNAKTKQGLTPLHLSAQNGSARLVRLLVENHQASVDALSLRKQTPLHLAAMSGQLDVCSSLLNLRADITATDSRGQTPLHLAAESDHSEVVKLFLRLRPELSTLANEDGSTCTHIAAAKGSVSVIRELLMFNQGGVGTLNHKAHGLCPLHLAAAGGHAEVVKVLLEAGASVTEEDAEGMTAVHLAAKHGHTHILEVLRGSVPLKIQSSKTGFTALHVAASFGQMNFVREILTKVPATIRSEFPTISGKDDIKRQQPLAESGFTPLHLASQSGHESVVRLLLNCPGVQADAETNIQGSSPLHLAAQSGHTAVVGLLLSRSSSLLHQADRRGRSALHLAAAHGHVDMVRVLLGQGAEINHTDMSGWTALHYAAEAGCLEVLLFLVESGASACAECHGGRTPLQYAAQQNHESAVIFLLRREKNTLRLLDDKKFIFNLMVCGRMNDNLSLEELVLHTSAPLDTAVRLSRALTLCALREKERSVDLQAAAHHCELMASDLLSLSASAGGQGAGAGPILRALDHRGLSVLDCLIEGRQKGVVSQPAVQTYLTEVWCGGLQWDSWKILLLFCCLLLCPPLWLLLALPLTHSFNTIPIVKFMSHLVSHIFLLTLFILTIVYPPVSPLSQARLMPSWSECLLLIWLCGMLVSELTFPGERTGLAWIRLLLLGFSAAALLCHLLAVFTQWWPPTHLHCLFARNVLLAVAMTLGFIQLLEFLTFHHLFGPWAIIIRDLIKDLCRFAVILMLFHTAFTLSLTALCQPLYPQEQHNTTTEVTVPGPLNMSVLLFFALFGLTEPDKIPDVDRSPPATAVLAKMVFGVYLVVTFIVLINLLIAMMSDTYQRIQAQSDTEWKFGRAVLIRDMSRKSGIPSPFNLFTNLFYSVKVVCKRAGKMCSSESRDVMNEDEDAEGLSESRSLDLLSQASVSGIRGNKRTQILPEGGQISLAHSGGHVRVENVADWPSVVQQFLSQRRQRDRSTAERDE

Oxytocin receptor = Oxytocin receptor (Homo sapiens, UniProt P30559); assay: Fluorescence-based cell-based high throughput dose response assay for potentiators of Oxytocin Receptor (OXTR). [Related pubchem assays: 434985 (Confirmation screen (OXTR potentiators in triplicate)), 2481 (Summary (OXTR potentiators)), 2445 (Primary screen (OXTR potentiators in singlicate))]; type: functional
Sequence of Oxytocin receptor (P30559 whole entry): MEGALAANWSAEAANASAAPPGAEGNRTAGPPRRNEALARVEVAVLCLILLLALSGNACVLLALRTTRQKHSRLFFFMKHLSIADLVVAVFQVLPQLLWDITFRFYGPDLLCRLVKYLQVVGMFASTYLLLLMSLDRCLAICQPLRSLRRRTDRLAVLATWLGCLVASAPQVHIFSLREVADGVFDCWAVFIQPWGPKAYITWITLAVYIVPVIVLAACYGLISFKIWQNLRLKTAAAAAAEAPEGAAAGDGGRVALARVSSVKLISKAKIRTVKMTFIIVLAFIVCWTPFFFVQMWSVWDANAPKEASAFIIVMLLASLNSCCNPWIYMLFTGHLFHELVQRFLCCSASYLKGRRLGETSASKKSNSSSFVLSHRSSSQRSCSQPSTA

Sequence of Neuropeptide Y receptor type 2 (P49146 whole entry): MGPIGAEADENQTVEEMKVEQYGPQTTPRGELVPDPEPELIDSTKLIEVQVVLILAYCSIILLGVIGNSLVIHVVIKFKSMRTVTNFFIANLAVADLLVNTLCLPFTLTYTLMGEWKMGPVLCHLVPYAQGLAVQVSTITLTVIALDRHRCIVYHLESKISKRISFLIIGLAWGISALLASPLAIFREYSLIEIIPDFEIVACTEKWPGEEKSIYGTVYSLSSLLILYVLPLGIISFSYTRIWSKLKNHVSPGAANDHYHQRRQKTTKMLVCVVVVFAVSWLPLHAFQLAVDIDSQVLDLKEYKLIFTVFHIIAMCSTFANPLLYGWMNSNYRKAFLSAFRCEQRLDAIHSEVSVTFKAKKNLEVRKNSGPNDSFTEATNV

Structure (SMILES): COc1ccc(N(C)S(=O)(=O)c2cccc(C(=O)NC3CCC(C)CC3)c2)cc1 (stereo not drawn)
- IC50 [1]: > 35 µM (not active)
- IC50 [2]: > 35 µM (not active)

Structure (SMILES): N=C1SCC(=O)N1c1ncc(Cc2cccc(Cl)c2)s1
- EC50 (Streptococcus): 3.33 µM (active)
- IC50 [3]: 2.63 µM (active)
- EC50 (Mucolipin-3): 5.44 µM (active)
- EC50 [4]: 0.244 µM (active)
- EC50 (Ion channel NompC): > 29.9 µM (not active)

Structure (SMILES): CCOc1ccccc1NC(=O)c1cccc(NC(=O)CC(c2ccccc2)c2ccccc2)c1
- EC50 (Oxytocin receptor): > 29.9 µM (not active)
